System: epileptic seizures
Test: Clinical treatment of the inventor's child with mixed epileptic seizure types (case report)
Assay type: in vivo, human
Conditions: for effect on the child's epileptic seizures: onset, hundreds of seizures a day, substance given without cannabis extract
Source text: The inventor has a child, who, experienced an abrupt onset of hundreds of absence seizures a day that developed into mixed epileptic seizure types, including absence, focal, atonic, myoclonic-atonic, tonic, and eventually a 10-hour status epilepticus seizure. The Inventor was told their child would die in their sleep from SUDEP and no medication will be able to treat them. […] The child is […] now and has developed normally.

Row | SMILES | effect on the child's epileptic seizures | side effects (child with intractable seizures, Keppra without cannabis extract)
1 | C=C(C)[C@@H]1CCC(C)=C[C@H]1c1c(O)cc(CCCCC)cc1O [CBD, cannabidiol] | neither did CBD alone | –
2 | CC[C@@H](C(N)=O)N1CCCC1=O [Keppra, Levetiracetam] | reduced the frequency of the seizures but could not fully control them | side effects of nausea and “Keppra rage”
